Test results published in publication PMC4016240, “Flavonoids with α-glucosidase inhibitory activities and their contents in the leaves of Morus atropurpurea” (Chinese Medicine, 2013).

Target: T1, yeast α-glucosidase (Saccharomyces cerevisiae, UniProt P53341)
T1 construct: purchased Sigma-Aldrich
Experiment: microplate-based α-glucosidase inhibition assay (pNPG substrate)
Format: biochemical, Saccharomyces cerevisias
Details: pH 6.8, 37°C, 30 min, means ± SD, n = 3
Description: Acetonitrile (HPLC grade) and acetic acid (HPLC grade) were purchased from Merck (Darmstadt, Germany), and methanol (AR grade) was purchased from Kaitong (Tianjin, China). Sodium carbonate was purchased from BDH Laboratory Supplies (Poole, Dorset, UK). α-Glucosidase type 1 ([…] from Saccharomyces cerevisias) and 4-nitrophenyl α-D-glucopyranoside (pNPG) were purchased from Sigma-Aldrich (St. Louis, MO, USA). Ultra-pure water was purified using a Millipore Milli Q-Plus system (Billerica, MA, USA). […] Silica gel (200–300 mesh) was purchased from Qingdao Haiyang Chemical Co. Ltd. (Qingdao, China). Macroporous absorption resin (D101) was purchased from Haiguang Chemical Industrial Co. (Tianjin, China). Sephadex LH-20 was purchased from GE Healthcare Bio-Sciences AB (Uppsala, Sweden), and the Millex® nylon membrane syringe filter was purchased from Millipore (Billerica, MA, USA).
The yeast α-glucosidase inhibitory activities of the four flavonoids were determined by a microplate-based method with a slight modification. […] The 4-nitrophenol absorption was measured at 405 nm. […] The inhibitory activity was calculated using the following formula: […]
where AS, ASB, AC, and ACB are the absorbances of sample, sample blank, control, and control blank, respectively.

T1 sequence (P53341 whole entry): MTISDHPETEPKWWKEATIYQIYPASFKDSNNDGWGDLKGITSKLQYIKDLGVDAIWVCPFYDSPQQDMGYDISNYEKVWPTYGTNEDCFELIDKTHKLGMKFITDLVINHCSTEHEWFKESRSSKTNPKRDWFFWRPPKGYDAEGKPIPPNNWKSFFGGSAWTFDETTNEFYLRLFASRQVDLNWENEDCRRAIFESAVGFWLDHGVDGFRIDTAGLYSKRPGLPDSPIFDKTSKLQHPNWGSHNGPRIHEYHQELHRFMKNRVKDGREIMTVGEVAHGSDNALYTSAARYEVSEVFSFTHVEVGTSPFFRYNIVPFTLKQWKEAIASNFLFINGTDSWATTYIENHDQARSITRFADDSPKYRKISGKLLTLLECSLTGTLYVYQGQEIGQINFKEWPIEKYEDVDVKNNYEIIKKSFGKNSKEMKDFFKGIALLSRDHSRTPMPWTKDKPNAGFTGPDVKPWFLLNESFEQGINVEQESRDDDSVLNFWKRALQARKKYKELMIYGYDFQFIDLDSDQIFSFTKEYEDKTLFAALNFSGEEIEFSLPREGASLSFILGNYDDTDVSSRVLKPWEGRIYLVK

Structure (SMILES)	IC50 [µM]
C[C@@H]1O[C@@H](OC[C@H]2O[C@@H](Oc3c(-c4ccc(O)c(O)c4)oc4cc(O)cc(O)c4c3=O)[C@H](O)[C@@H](O)[C@@H]2O)[C@H](O)[C@H](O)[C@H]1O [flavonoid 1, rutin]	13.2
O=c1c(O[C@@H]2O[C@H](CO)[C@@H](O)[C@H](O)[C@H]2O)c(-c2ccc(O)c(O)c2)oc2cc(O)cc(O)c12 [flavonoid 2, isoquercetin]	117
